# According to patent US11337970B2, “Inhibitors of indoleamine 2,3-dioxygenase and methods of their use” (BRISTOL-MYERS SQUIBB COMPANY, priority 2016, dated 2022):
# Biological target: T1, indoleamine 2,3-dioxygenase (IDO) (Homo sapiens, UniProt P14902)
# T1 construct: host or cells: HeLa cells stimulated with IFNγ (25 ng/mL)
# Test: HeLa cell-based indoleamine 2,3-dioxygenase (IDO) assay (kynurenine production)
# Conditions: HeLa cells, IFNγ 25 ng/mL, 48 hour incubation, absorbance at 480 nm
# Protocol: Assessment of inhibitor activity in HeLa cell-based indoleamine 2,3-dioxygenase (IDO) assay:
# HeLa (ATCC® CCL-2) cells were obtained from the ATCC® and cultured in Dulbecco's Modified Eagle Medium supplemented with 4.5 g/L glucose, […] (#10-013-CV, Corning), 2 mM L-alanyl-L-glutamine dipeptide (#35050-061, Gibco), 100U/mL penicillin, 100 μg/mL streptomycin (#SV30010, HyClone) and 10% fetal bovine serum (#SH30071.03 HyClone). Cells were maintained in a humidified incubator at 37° C. in 5% CO2.
# IDO activity was assessed as a function of kynurenine production as follows: HeLa cells were seeded in a 96-well culture plate at a density of 5,000 cells/well and allowed to equilibrate overnight. After 24 hours, the media was aspirated and replaced with media containing IFNγ (#285-IF/CF, R&D Systems) at a final concentration of 25 ng/mL. A serial dilution of each test compound was added to the cells in a total volume of 200 μL of culture medium. After a further 48 hour incubation, 170 μL of supernatant was transferred from each well to a fresh 96-well plate. 12.1 μL of 6.1N trichloroacetic acid (#T0699, Sigma-Aldrich) was added to each well and mixed, followed by incubation at 65° C. for 20 minutes to hydrolyze N-formylkynurenine, the product of indoleamine 2,3-dioxygenase, to kynurenine. The reaction mixture was then centrifuged for 10 mins at 500×g to sediment the precipitate. 100 μL of the supernatant was transferred from each well to afresh 96-well plate. 100 μl of 2% (w/v) p-dimethylaminobenzaldehyde (#15647-7, Sigma-Aldrich) in acetic acid (#A6283, Sigma-Aldrich) was added to each well mixed and incubated at room temperature for 20 mins. Kynurenine concentrations were determined by measuring absorbance at 480 nm and calibrating against an L-kynurenine (#K8625, Sigma-Aldrich) standard curve using a SPECTRAMAX® M2e microplate reader (Molecular Devices). The percentage activity at each inhibitor concentration was determined and IC50 values assessed using nonlinear regression.
# T1 sequence (P14902 whole entry): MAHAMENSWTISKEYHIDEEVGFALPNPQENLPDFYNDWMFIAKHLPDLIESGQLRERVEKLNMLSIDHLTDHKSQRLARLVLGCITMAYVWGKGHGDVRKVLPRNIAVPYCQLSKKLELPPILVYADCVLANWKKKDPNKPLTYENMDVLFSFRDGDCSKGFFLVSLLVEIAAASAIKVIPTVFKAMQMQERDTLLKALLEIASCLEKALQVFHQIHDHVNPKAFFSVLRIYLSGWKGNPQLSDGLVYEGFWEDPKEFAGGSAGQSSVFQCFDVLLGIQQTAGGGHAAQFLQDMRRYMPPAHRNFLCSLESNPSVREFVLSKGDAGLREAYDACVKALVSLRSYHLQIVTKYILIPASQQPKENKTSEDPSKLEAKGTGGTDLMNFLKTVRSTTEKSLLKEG
row,SMILES,IC50
1,"CCC(c1nc2ncc(Cl)cc2[nH]1)[C@H]1CC[C@@H](c2ccnc3ccc(C(F)(F)F)cc32)CC1 (single isomer, unassigned) [Example 22-2, 4-((cis)-4-(1-(6-chloro-1H-imidazo[4,5-b]pyridin-2-yl)propyl)cyclohexyl)-6-(trifluoromethyl)quinoline]",99.1 nM
2,"CCC(c1nc2ncc(Cl)cc2[nH]1)[C@H]1CC[C@H](Oc2ccnc3ccccc23)CC1 (mixture of isomers) [Example 20, (±)-4-(((trans)-4-(1-(6-chloro-1H-imidazo[4,5-b]pyridin-2-yl)-3-propyl)cyclohexyl)oxy)quinoline]",5.8 nM
3,"COC(=O)c1ccc2[nH]c([C@H](C)[C@H]3CC[C@@H](c4ccnc5ccc(F)cc54)CC3)nc2c1 [Example 50, methyl 2-((R)-1-((1s,4S)-4-(6-fluoroquinolin-4-yl)cyclohexyl)ethyl)-1H-benzo[d]imidazole-5-carboxylate]",2.1 nM
4,"C[C@@H](c1nc2ccc(Cl)cc2c(=O)[nH]1)[C@H]1CC[C@@H](c2ccnc3ccc(F)cc32)CC1 [Example 29, 6-chloro-2-((R)-1-((cis)-4-(6-fluoroquinolin-4-yl)cyclohexyl)ethyl)quinazolin-4(3H)-one]",143 nM
5,"C[C@@H](c1nnc2ccccn12)[C@H]1CC[C@@H](c2ccnc3ccc(F)cc32)CC1 [Example 26, 4-((cis)-4-((R)-1-([1,2,4]triazolo[4,3-a]pyridin-3-yl)ethyl)cyclohexyl)-6-fluoroquinoline]",459 nM
6,"C[C@@H](c1nc2c(F)c(F)c(F)c(F)c2[nH]1)[C@H]1CC[C@@H](c2ccnc3ccc(F)cc32)CC1 [Example 43, 6-fluoro-4-((1S,4s)-4-((R)-1-(4,5,6,7-tetrafluoro-1H-benzo[d]imidazol-2-yl)ethyl)cyclohexyl) quinoline]",3.5 nM
7,"CCC(c1nc2ncc(Cl)cc2[nH]1)[C@H]1CC[C@@H](c2ccnc(F)c2C)CC1 (single isomer, unassigned) [Example 24-2, 6-chloro-2-(1-((cis)-4-(2-fluoro-3-methylpyridin-4-yl)cyclohexyl)-3-propyl)-1H-imidazo[4,5-b]pyridine]",2.7 nM
8,"Cc1ccc2nc([C@H](C)[C@H]3CC[C@@H](c4ccnc5ccc(F)cc54)CC3)cn2n1 [Example 30, 6-fluoro-4-((cis)-4-((R)-1-(6-methylimidazo[1,2-b]pyridazin-2-yl)ethyl)cyclohexyl)quinoline]",96.6 nM
9,"CC[C@H](c1nc2ncc(Cl)cc2[nH]1)[C@H]1CC[C@@H](c2ccnc3ccc(F)cc32)CC1 (single isomer, unassigned) [Example 21-1, 4-(4-(1-(6-chloro-1H-imidazo[4,5-b]pyridin-2-yl)propyl)cyclohexyl)-6-fluoroquinoline]",2 nM
10,"C[C@H]([C@H]1CC[C@@H](c2ccnc3ccc(F)cc32)CC1)n1cnc2ccccc2c1=O [Example 28, 3-((R)-1-((cis)-4-(6-fluoroquinolin-4-yl)cyclohexyl)ethyl)quinazolin-4(3H)-one]",834 nM
11,"C[C@@H](c1nc2cc(C(F)(F)F)cc(Cl)c2[nH]1)[C@H]1CC[C@@H](c2ccnc3ccc(F)cc32)CC1 [Example 46, 4-((1S,4s)-4-((R)-1-(7-chloro-5-(trifluoromethyl)-1H-benzo[d]imidazol-2-yl)ethyl)cyclohexyl)-6-fluoroquinoline]",12.2 nM
12,"COCC(c1nc2ccc(Cl)cc2[nH]1)[C@H]1CC[C@@H](c2ccnc3ccc(F)cc32)CC1 (mixture of isomers) [Example 19, (±)-4-((cis)-4-(1-(6-chloro-1H-benzo[d]imidazol-2-yl)-2-methoxyethyl)cyclohexyl)-6-fluoroquinoline]",3.8 nM
13,"Fc1ccc2nccc(C3CCC(C(CC(F)(F)F)c4nc5ccc(Cl)cc5[nH]4)CC3)c2c1 (racemic) [Example 33, (±)-Cis and trans-4-(4-(1-(6-chloro-1H-benzo[d]imidazol-2-yl)-3,3,3-trifluoropropyl)cyclohexyl)-6-fluoroquinoline]",7.5 nM
14,C[C@@H](c1nc2cc(Cl)c(F)cc2[nH]1)[C@H]1CC[C@@H](c2ccnc3ccc(F)cc32)CC1 [Example 42],3.7 nM
15,"C[C@@H](c1nc2cc(C(F)(F)F)ccc2[nH]1)[C@H]1CC[C@@H](c2ccnc3ccc(F)cc32)CC1 [Example 45, 6-fluoro-4-((1S,4s)-4-((R)-1-(5-(trifluoromethyl)-1H-benzo[d]imidazol-2-yl)ethyl)cyclohexyl) quinoline]",3.1 nM
16,"C[C@@H](c1nc2c(F)c(F)ccc2[nH]1)[C@H]1CC[C@@H](c2ccnc3ccc(F)cc32)CC1 [Example 41, 4-((1S,4s)-4-((R)-1-(4,5-difluoro-1H-benzo[d]imidazol-2-yl)ethyl)cyclohexyl)-6-fluoroquinoline]",3.4 nM
17,"CC[C@H](c1nc2ncc(Cl)cc2[nH]1)[C@H]1CC[C@@H](c2ccnc3ccc(F)cc32)CC1 (single isomer, unassigned) [Example 21-3, 4-(4-(1-(6-chloro-1H-imidazo[4,5-b]pyridin-2-yl)propyl)cyclohexyl)-6-fluoroquinoline]",5.1 nM
18,"CCC(c1nc2ncc(Cl)cc2[nH]1)[C@H]1CC[C@@H](c2ccnc(F)c2C)CC1 (mixture of isomers) [Example 24, (±)-6-chloro-2-(1-((cis)-4-(2-fluoro-3-methylpyridin-4-yl)cyclohexyl)-3-propyl)-1H-imidazo[4,5-b]pyridine]",7.5 nM
19,C[C@@H](c1nc2cc(F)c(F)cc2[nH]1)[C@H]1CC[C@@H](c2ccnc3ccc(F)cc32)CC1 [Example 40],2.7 nM
20,"CCOCC(c1nc2ccc(Cl)cc2[nH]1)[C@H]1CC[C@@H](c2ccnc(F)c2C)CC1 (mixture of isomers) [Example 25, (±)-6-chloro-2-(2-ethoxy-1-((cis)-4-(2-fluoro-3-methylpyridin-4-yl)cyclohexyl)ethyl)-1H-benzo[d]imidazole]",44.9 nM
21,"C[C@@H](c1nc2cc(OC(F)(F)F)ccc2[nH]1)[C@H]1CC[C@@H](c2ccnc3ccc(F)cc32)CC1 [Example 48, 6-fluoro-4-((1S,4s)-4-((R)-1-(5-(trifluoromethoxy)-1H-benzo[d]imidazol-2-yl)ethyl)cyclohexyl) quinoline]",10.7 nM
22,"CCC(c1nc2ccc(Cl)cc2[nH]1)[C@H]1CC[C@@H](c2ccnc(F)c2C)CC1 (single isomer, unassigned) [Example 23-1, 6-chloro-2-(1-((cis)-4-(2-fluoro-3-methylpyridin-4-yl)cyclohexyl)-3-propyl)-1H-benzo[d]imidazole]",998 nM
23,"CC[C@H](c1nc2ncc(Cl)cc2[nH]1)[C@H]1CC[C@@H](c2ccnc3ccc(F)cc32)CC1 (single isomer, unassigned) [Example 21-4, 4-(4-(1-(6-chloro-1H-imidazo[4,5-b]pyridin-2-yl)propyl)cyclohexyl)-6-fluoroquinoline]",89.7 nM
24,"CCC(c1nc2ncc(Cl)cc2[nH]1)[C@H]1CC[C@@H](c2ccnc3ccc(C(F)(F)F)cc32)CC1 (mixture of isomers) [Example 22, (±)-4-((cis)-4-(1-(6-chloro-1H-imidazo[4,5-b]pyridin-2-yl)propyl)cyclohexyl)-6-(trifluoromethyl)quinoline]",3.7 nM
25,"C[C@@H](c1nc2cc(C(F)(F)F)cc(C(F)(F)F)c2[nH]1)[C@H]1CC[C@@H](c2ccnc3ccc(F)cc32)CC1 [Example 47, 4-((1S,4s)-4-((R)-1-(5,7-bis(trifluoromethyl)-1H-benzo[d]imidazol-2-yl)ethyl)cyclohexyl)-6-fluoroquinolme]",45.6 nM
26,"C[C@@H](c1nc2cc(C#N)ccc2[nH]1)[C@H]1CC[C@@H](c2ccnc3ccc(F)cc32)CC1 [Example 49, 2-((R)-1-((1s,4S)-4-(6-fluoroquinolin-4-yl)cyclohexyl)ethyl)-1H-benzo[d]imidazole-5-carbonitrile]",13.4 nM
27,"C[C@@H](c1nc2cc(Cl)c(Cl)cc2[nH]1)[C@H]1CC[C@@H](c2ccnc3ccc(F)cc32)CC1 [Example 44, 4-((1S,4s)-4-((R)-1-(5,6-dichloro-1H-benzo[d]imidazol-2-yl)ethyl)cyclohexyl)-6-fluoroquinoline]",5.5 nM
28,"CC[C@H](c1nc2ncc(Cl)cc2[nH]1)[C@H]1CC[C@@H](c2ccnc3ccc(F)cc32)CC1 (single isomer, unassigned) [Example 21-2, 4-(4-(1-(6-chloro-1H-imidazo[4,5-b]pyridin-2-yl)propyl)cyclohexyl)-6-fluoroquinoline]",1000 nM
29,"CCC(c1nc2ncc(Cl)cc2[nH]1)[C@H]1CC[C@H](Oc2ccnc3ccccc23)CC1 (single isomer, unassigned) [Example 20-2]",4.5 nM
